From US5451569A, “Pulmonary drug delivery system” (Hong Kong University of Science and Technology R & D …, priority 1994, dated 1995)

Experiments:
rats [1] = assay: Urine osmolarity and urine volume after tracheal instillation of AVP during 5% glucose infusion; format: in vivo, rat; settings: 0.6 units AVP by tracheal instillation after 30 minutes of 5% glucose infusion at 10 ml/hr
Protocol: The trachea was cannulated for drug delivery.
This example illustrates the effect of surfactant on pulmonary vasopressin (AVP) absorption. The experimental details were as follows. 5% glucose was infused at 10 ml/hr throughout the experiment. Urine osmolarity and urine volume resulting from glucose administration alone was contrasted with (1) a delivery of 0.6 units AVP, and (2) delivery of 0.6 units of AVP with 60 μl of surfactant (at a concentration of 40 mg/ml). In (1) and (2) the delivery of AVP and AVP with surfactant was by instillation through the trachea after 30 minutes of glucose infusion which infusion continued. FIGS. 3(a) and (b) show the results in term of urine osmolarity and volume respectively. Infusion of 5% glucose should have the effect of decreasing urine osmolarity and increasing urine volume.

rats [2] = assay: Blood glucose after intravenous or tracheal delivery of insulin in cannulated rats
Protocol: A sufficient number of rats weighing between 350-400 g were selected. In each rat the carotid artery and jugular vein were cannulated for blood sampling and fluid infusion. The trachea was cannulated for drug delivery. Fluids given through the trachea were either in a volume of 100 μl or 200 μl given in two separate doses 30 minutes apart. 40 μl of insulin (at a concentration of 200 units/ml) was mixed with 60 μl of lung surfactant (at a concentration of 40 mg/ml) and was administered by the tracheal route. Insulin without surfactant was administered intravenously to a control sample.

| Molecule | effect on urine osmolarity (rats [1]; FIG. 3(a)) | effect on urine volume (rats [1]; FIG. 3(b)) | time after which glucose concentration begins to rise again (rats [2]; intravenous insulin, FIG. 1(a)) | intravenous insulin dose equivalent to tracheal delivery of 8 units of insulin (rats [2]; tracheal delivery of 8 units (40 μl of 200 units/ml), hypoglycemic effect, FIG. 1(b)) | share of insulin that enters the bloodstream (rats [2]; tracheal delivery of 8 units, estimated from the equivalent intravenous dose) | duration of hypoglycemic effect (rats [2]; tracheal delivery, over a three hour period, FIG. 1(b)) |
| --- | --- | --- | --- | --- | --- | --- |
| NC(=O)CC[C@@H]1NC(=O)[C@H](Cc2ccccc2)NC(=O)[C@H](Cc2ccc(O)cc2)NC(=O)[C@@H](N)CSSC[C@@H](C(=O)N2CCC[C@H]2C(=O)N[C@@H](CCCN=C(N)N)C(=O)NCC(N)=O)NC(=O)[C@H](CC(N)=O)NC1=O [AVP, vasopressin] | increases urine osmolarity | reduces urine volume |  |  |  |  |
| insulin |  |  | approximately 60 mins | 0.5 units | about 6.25% | no significant increase in glucose concentration |
